Conditions: Liquid, Vibrating tube method

CCCCCCCCCCCC(=O)OCC [ethyl dodecanoate]
mass density [kg/m3]
Conditions	283.15 K	293.15 K	303.15 K	313.15 K	323.15 K	333.15 K	343.15 K	353.15 K	363.15 K
100 kPa	869.69	862.5	854.28	846.91	838.9	831.05	823.11	815.47	807.52
1000 kPa	870.36	863	855.02	847.32	839.64	831.72	824.13	816.33	808.53
3000 kPa	871.92	864.24	856.39	848.68	841.1	833.53	825.84	818.26	810.45
5000 kPa	872.91	865.2	857.69	850.07	842.59	835.15	827.55	819.99	812.32
10000 kPa	876.08	868.58	860.98	853.51	846.29	838.84	831.53	824.24	816.46
15000 kPa	878.96	871.64	864.33	856.86	849.77	842.47	835.33	828.35	821.01
20000 kPa	881.89	874.58	867.23	860.1	853.3	846.07	839.18	832.01	824.82
25000 kPa	884.58	877.55	870.25	863.29	856.35	849.47	842.57	835.81	828.56
30000 kPa	887.29	880.26	873.21	866.24	859.5	852.73	846.08	839.36	832.36
35000 kPa	890.05	882.89	876.08	869.1	862.45	855.75	849.44	842.72	835.98
40000 kPa	892.47	885.52	878.71	871.83	865.48	859.06	852.46	846.01	839.55
50000 kPa	897.22	890.85	883.88	877.43	871.16	864.9	858.61	852.29	845.99
60000 kPa	901.93	895.29	888.85	882.35	876.11	870.44	864.08	858.27	852.14

CCCCCCCCCCCC(=O)OC [methyl dodecanoate]
mass density [kg/m3]
Conditions	283.15 K	293.15 K	303.15 K	313.15 K	323.15 K	333.15 K	343.15 K	353.15 K	363.15 K
100 kPa	876.58	869.3	860.98	853.31	845.42	837.89	829.64	821.96	813.95
1000 kPa	877.29	869.79	861.67	853.78	846.17	838.44	830.6	822.7	814.97
3000 kPa	879.12	871.19	863.19	855.32	847.65	840.13	832.28	824.65	816.88
5000 kPa	880.29	872.09	864.57	856.78	849.19	841.69	834.04	826.36	818.64
10000 kPa	883.41	875.46	867.78	860.3	852.91	845.49	837.93	830.59	822.93
15000 kPa	886.29	878.42	871.1	863.63	856.38	849.14	841.71	834.55	827.44
20000 kPa	889.1	881.47	874.06	866.74	859.88	852.7	845.7	838.32	831.22
25000 kPa	891.75	884.32	876.92	870.04	863.01	856.12	848.98	842.04	834.95
30000 kPa	894.31	887.1	879.85	872.94	866.2	859.27	852.48	845.62	838.64
35000 kPa	896.95	889.69	882.66	875.68	869.19	862.4	855.72	849.06	842.26
40000 kPa	899.33	892.27	885.34	878.33	872.15	865.66	858.94	853.14	845.87
50000 kPa	904.05	897.52	890.6	883.95	877.67	871.36	864.79	858.49	852.24
60000 kPa	909.85	901.95	895.49	888.91	883.06	876.77	870.31	864.35	858.43

— the NIST ThermoML archive (doi:10.1016/j.jct.2016.08.027)
